# Patent US11006631B2, “Substituted pyrimidinyloxy pyridine derivatives as herbicides” (FMC Corporation, priority 2015, dated 2021)
# Key:
# Format in all cases: in vivo
# [1] = test system: velvetleaf (Abutilon theophrasti); experiment: Test A postemergence, velvetleaf; conditions: 0 to 100 scale
# Text: (§1) Seeds of plant species selected from bamyardgrass (Echinochloa crus-galli), kochia (Kochia scoparia), ragweed (common ragweed, Ambrosia elatior), ryegrass, Italian (Italian ryegrass, Lolium multiflorum), foxtail, giant (giant foxtail, Setaria faberii), pigweed (Amaranthus retroflexus), crabgrass, large (large crabgrass, Digitaria sanguinalis), momingglory (Ipomoea spp.), velvetleaf (Abutilon theophrasti), wheat (Triticum aestivum), and corn (Zea mays) were planted into a blend of loam soil and sand and treated preemergence with a directed soil spray using test chemicals formulated in a non-phytotoxic solvent mixture which included a surfactant. At the same time, plants selected from these crop and weed species and also blackgrass (Alopecurus myosuroides), and galium (catchweed bedstraw, Galium aparine) were planted in pots containing the same blend of loam soil and sand and treated with postemergence applications of test chemicals formulated in the same manner. Plants ranged in height from 2 to 10 cm and were in the one- to two-leaf stage for the postemergence treatment. Treated plants and untreated controls were maintained in a greenhouse for approximately 10 days, after which time all treated plants were compared to untreated controls and visually evaluated for injury. Plant response ratings, summarized in Table A, are based on a 0 to 100 scale where 0 is no effect and 100 is complete control. A dash (-) response means no test result.
# [2] = test system: morningglory (Ipomoea spp.); experiment: Test A postemergence, morningglory; conditions: 0 to 100 scale
# Text: as §1
# [3] = test system: barnyardgrass (Echinochloa crus-galli); experiment: Test B flooded paddy test, barnyardgrass; conditions: Flood, 250 g ai/ha; scale of 0 to 100
# Protocol: (§2) Plant species in the flooded paddy test selected from rice (Oryza sativa), sedge, umbrella (small-flower umbrella sedge, Cyperus difformis), ducksalad (Heteranthera limosa), and barnyardgrass (Echinochloa crus-galli) were grown to the 2-leaf stage for testing. At time of treatment, test pots were flooded to 3 cm above the soil surface, treated by application of test compounds directly to the paddy water, and then maintained at that water depth for the duration of the test. Treated plants and controls were maintained in a greenhouse for 13 to 15 days, after which time all species were compared to controls and visually evaluated. Plant response ratings, summarized in Table B, are based on a scale of 0 to 100 where 0 is no effect and 100 is complete control. A dash (-) response means no test result.
# [4] = test system: wheat (Triticum aestivum); experiment: Test A preemergence, wheat; conditions: 0 to 100 scale
# Text: as §1
# [5] = test system: barnyardgrass (Echinochloa crus-galli); experiment: Test A preemergence, barnyardgrass; conditions: 0 to 100 scale
# Text: as §1
# [6] = test system: crabgrass, large (large crabgrass, Digitaria sanguinalis); experiment: Test A preemergence, crabgrass, large; conditions: 0 to 100 scale
# Text: as §1
# [7] = test system: foxtail, giant (giant foxtail, Setaria faberii); experiment: Test A postemergence, foxtail, giant; conditions: 0 to 100 scale
# Text: as §1
# [8] = test system: wheat (Triticum aestivum); experiment: Test A postemergence, wheat; conditions: 0 to 100 scale
# Text: as §1
# [9] = test system: velvetleaf (Abutilon theophrasti); experiment: Test A preemergence, velvetleaf; conditions: 0 to 100 scale
# Text: as §1
# [10] = test system: crabgrass, large (large crabgrass, Digitaria sanguinalis); experiment: Test A postemergence, crabgrass, large; conditions: 0 to 100 scale
# Text: as §1
# [11] = test system: ducksalad (Heteranthera limosa); experiment: Test B flooded paddy test, ducksalad; conditions: Flood, 250 g ai/ha; scale of 0 to 100
# Protocol: as §2
# [12] = test system: pigweed (Amaranthus retroflexus); experiment: Test A preemergence, pigweed; conditions: 0 to 100 scale
# Text: as §1
# [13] = test system: pigweed (Amaranthus retroflexus); experiment: Test A postemergence, pigweed; conditions: 0 to 100 scale
# Text: as §1
# [14] = test system: foxtail, giant (giant foxtail, Setaria faberii); experiment: Test A preemergence, foxtail, giant; conditions: 0 to 100 scale
# Text: as §1
# [15] = test system: barnyardgrass (Echinochloa crus-galli); experiment: Test A postemergence, barnyardgrass; conditions: 0 to 100 scale
# Text: as §1
# [16] = test system: morningglory (Ipomoea spp.); experiment: Test A preemergence, morningglory; conditions: 0 to 100 scale
# Text: as §1
# corn (Zea mays) [17] = experiment: Test A postemergence, corn; conditions: 0 to 100 scale
# Text: as §1
# corn (Zea mays) [18] = experiment: Test A preemergence, corn; conditions: 0 to 100 scale
# Text: as §1
# rice (Oryza sativa) = experiment: Test B flooded paddy test, rice; conditions: Flood, 250 g ai/ha; scale of 0 to 100
# Protocol: as §2
# [19] = test system: sedge, umbrella (small-flower umbrella sedge, Cyperus difformis); experiment: Test B flooded paddy test, sedge, umbrella; conditions: Flood, 250 g ai/ha; scale of 0 to 100
# Protocol: as §2
# [20] = test system: ryegrass, Italian (Italian ryegrass, Lolium multiflorum); experiment: Test A postemergence, ryegrass, Italian; conditions: 0 to 100 scale
# Text: as §1
# [21] = test system: ragweed (common ragweed, Ambrosia elatior); experiment: Test A preemergence, ragweed; conditions: 0 to 100 scale
# Text: as §1
# [22] = test system: ragweed (common ragweed, Ambrosia elatior); experiment: Test A postemergence, ragweed; conditions: 0 to 100 scale
# Text: as §1
# kochia (Kochia scoparia) [23] = experiment: Test A preemergence, kochia; conditions: 0 to 100 scale
# Text: as §1
# [24] = test system: ryegrass, Italian (Italian ryegrass, Lolium multiflorum); experiment: Test A preemergence, ryegrass, Italian; conditions: 0 to 100 scale
# Text: as §1
# [25] = test system: galium (catchweed bedstraw, Galium aparine); experiment: Test A postemergence, galium; conditions: 0 to 100 scale
# Text: as §1
# [26] = test system: blackgrass (Alopecurus myosuroides); experiment: Test A postemergence, blackgrass; conditions: 0 to 100 scale
# Text: as §1
# kochia (Kochia scoparia) [27] = experiment: Test A postemergence, kochia; conditions: 0 to 100 scale
# Text: as §1
smiles,measurement,setting,value
Cc1ccc(Oc2ncc(Cl)cn2)c(-n2cc(Br)cn2)n1 [Compound 10],"Plant response rating, Velvetleaf",[1]; 125 g ai/ha,50
same,"Plant response rating, Velvetleaf",[1]; 500 g ai/ha,80
same,"Plant response rating, Morningglory",[2]; 125 g ai/ha,0
same,"Plant response rating, Morningglory",[2]; 500 g ai/ha,10
same,"Plant response rating, Barnyardgrass",[3],0
same,"Plant response rating, Wheat",[4]; 125 g ai/ha,0
same,"Plant response rating, Wheat",[4]; 500 g ai/ha,0
same,"Plant response rating, Barnyardgrass",[5]; 125 g ai/ha,0
same,"Plant response rating, Barnyardgrass",[5]; 500 g ai/ha,0
same,"Plant response rating, Crabgrass, Large",[6]; 125 g ai/ha,0
same,"Plant response rating, Crabgrass, Large",[6]; 500 g ai/ha,50
same,"Plant response rating, Foxtail, Giant",[7]; 125 g ai/ha,0
same,"Plant response rating, Foxtail, Giant",[7]; 500 g ai/ha,0
same,"Plant response rating, Wheat",[8]; 125 g ai/ha,0
same,"Plant response rating, Wheat",[8]; 500 g ai/ha,0
same,"Plant response rating, Velvetleaf",[9]; 125 g ai/ha,0
same,"Plant response rating, Velvetleaf",[9]; 500 g ai/ha,20
same,"Plant response rating, Crabgrass, Large",[10]; 125 g ai/ha,0
same,"Plant response rating, Crabgrass, Large",[10]; 500 g ai/ha,10
same,"Plant response rating, Ducksalad",[11],0
same,"Plant response rating, Pigweed",[12]; 125 g ai/ha,0
same,"Plant response rating, Pigweed",[12]; 500 g ai/ha,40
same,"Plant response rating, Pigweed",[13]; 125 g ai/ha,10
same,"Plant response rating, Pigweed",[13]; 500 g ai/ha,50
same,"Plant response rating, Foxtail, Giant",[14]; 125 g ai/ha,0
same,"Plant response rating, Foxtail, Giant",[14]; 500 g ai/ha,20
same,"Plant response rating, Barnyardgrass",[15]; 125 g ai/ha,0
same,"Plant response rating, Barnyardgrass",[15]; 500 g ai/ha,0
same,"Plant response rating, Morningglory",[16]; 125 g ai/ha,0
same,"Plant response rating, Morningglory",[16]; 500 g ai/ha,10
same,"Plant response rating, Corn",corn (Zea mays) [17]; 125 g ai/ha,0
same,"Plant response rating, Corn",corn (Zea mays) [17]; 500 g ai/ha,0
same,"Plant response rating, Corn",corn (Zea mays) [18]; 125 g ai/ha,0
same,"Plant response rating, Corn",corn (Zea mays) [18]; 500 g ai/ha,0
same,"Plant response rating, Rice",rice (Oryza sativa),0
same,"Plant response rating, Sedge, Umbrella",[19],0
Clc1cnc(Oc2cccnc2-n2cc(-c3ccccc3)cn2)nc1 [Compound 4],"Plant response rating, Velvetleaf",[1]; 125 g ai/ha,0
same,"Plant response rating, Velvetleaf",[1]; 500 g ai/ha,0
same,"Plant response rating, Morningglory",[2]; 125 g ai/ha,0
same,"Plant response rating, Morningglory",[2]; 500 g ai/ha,10
same,"Plant response rating, Wheat",[4]; 125 g ai/ha,0
same,"Plant response rating, Wheat",[4]; 500 g ai/ha,0
same,"Plant response rating, Barnyardgrass",[5]; 125 g ai/ha,0
same,"Plant response rating, Barnyardgrass",[5]; 500 g ai/ha,0
same,"Plant response rating, Crabgrass, Large",[6]; 125 g ai/ha,0
same,"Plant response rating, Crabgrass, Large",[6]; 500 g ai/ha,0
same,"Plant response rating, Foxtail, Giant",[7]; 125 g ai/ha,0
same,"Plant response rating, Foxtail, Giant",[7]; 500 g ai/ha,0
same,"Plant response rating, Wheat",[8]; 125 g ai/ha,0
same,"Plant response rating, Wheat",[8]; 500 g ai/ha,0
same,"Plant response rating, Velvetleaf",[9]; 125 g ai/ha,0
same,"Plant response rating, Velvetleaf",[9]; 500 g ai/ha,0
same,"Plant response rating, Crabgrass, Large",[10]; 125 g ai/ha,0
same,"Plant response rating, Crabgrass, Large",[10]; 500 g ai/ha,0
same,"Plant response rating, Ducksalad",[11],0
same,"Plant response rating, Pigweed",[12]; 125 g ai/ha,0
same,"Plant response rating, Pigweed",[12]; 500 g ai/ha,0
same,"Plant response rating, Pigweed",[13]; 125 g ai/ha,20
same,"Plant response rating, Pigweed",[13]; 500 g ai/ha,70
same,"Plant response rating, Foxtail, Giant",[14]; 125 g ai/ha,0
same,"Plant response rating, Foxtail, Giant",[14]; 500 g ai/ha,0
same,"Plant response rating, Barnyardgrass",[15]; 125 g ai/ha,0
same,"Plant response rating, Barnyardgrass",[15]; 500 g ai/ha,20
same,"Plant response rating, Morningglory",[16]; 125 g ai/ha,0
same,"Plant response rating, Morningglory",[16]; 500 g ai/ha,0
same,"Plant response rating, Corn",corn (Zea mays) [17]; 125 g ai/ha,0
same,"Plant response rating, Corn",corn (Zea mays) [17]; 500 g ai/ha,30
same,"Plant response rating, Corn",corn (Zea mays) [18]; 125 g ai/ha,0
same,"Plant response rating, Corn",corn (Zea mays) [18]; 500 g ai/ha,0
same,"Plant response rating, Rice",rice (Oryza sativa),10
same,"Plant response rating, Sedge, Umbrella",[19],70
"Clc1ccc(-c2cccnc2Oc2ncc(Cl)cn2)nc1 [Compound 12, 5-chloro-2-[(5-chloro[2,3′-bipyridin]-2′-yl)oxy]pyrimidine]","Plant response rating, Barnyardgrass",[3],0
same,"Plant response rating, Ryegrass, Italian",[20]; 31 g ai/ha,0
same,"Plant response rating, Ryegrass, Italian",[20]; 125 g ai/ha,0
same,"Plant response rating, Barnyardgrass",[5]; 31 g ai/ha,0
same,"Plant response rating, Barnyardgrass",[5]; 125 g ai/ha,0
same,"Plant response rating, Ragweed",[21]; 31 g ai/ha,0
same,"Plant response rating, Ragweed",[21]; 125 g ai/ha,0
same,"Plant response rating, Ragweed",[22]; 31 g ai/ha,0
same,"Plant response rating, Ragweed",[22]; 125 g ai/ha,10
same,"Plant response rating, Kochia",kochia (Kochia scoparia) [23]; 31 g ai/ha,0
same,"Plant response rating, Kochia",kochia (Kochia scoparia) [23]; 125 g ai/ha,40
same,"Plant response rating, Ryegrass, Italian",[24]; 31 g ai/ha,0
same,"Plant response rating, Ryegrass, Italian",[24]; 125 g ai/ha,0
same,"Plant response rating, Foxtail, Giant",[7]; 31 g ai/ha,0
same,"Plant response rating, Foxtail, Giant",[7]; 125 g ai/ha,0
same,"Plant response rating, Wheat",[8]; 31 g ai/ha,0
same,"Plant response rating, Wheat",[8]; 125 g ai/ha,0
same,"Plant response rating, Ducksalad",[11],30
same,"Plant response rating, Pigweed",[12]; 31 g ai/ha,0
same,"Plant response rating, Pigweed",[12]; 125 g ai/ha,60
same,"Plant response rating, Pigweed",[13]; 31 g ai/ha,10
same,"Plant response rating, Pigweed",[13]; 125 g ai/ha,30
same,"Plant response rating, Foxtail, Giant",[14]; 31 g ai/ha,0
same,"Plant response rating, Foxtail, Giant",[14]; 125 g ai/ha,0
same,"Plant response rating, Barnyardgrass",[15]; 31 g ai/ha,0
same,"Plant response rating, Barnyardgrass",[15]; 125 g ai/ha,30
same,"Plant response rating, Galium",[25]; 31 g ai/ha,10
same,"Plant response rating, Galium",[25]; 125 g ai/ha,10
same,"Plant response rating, Corn",corn (Zea mays) [17]; 31 g ai/ha,0
same,"Plant response rating, Corn",corn (Zea mays) [17]; 125 g ai/ha,10
same,"Plant response rating, Blackgrass",[26]; 31 g ai/ha,0
same,"Plant response rating, Blackgrass",[26]; 125 g ai/ha,0
same,"Plant response rating, Rice",rice (Oryza sativa),20
same,"Plant response rating, Sedge, Umbrella",[19],30
same,"Plant response rating, Kochia",kochia (Kochia scoparia) [27]; 31 g ai/ha,0
same,"Plant response rating, Kochia",kochia (Kochia scoparia) [27]; 125 g ai/ha,40
